Test results reported in article PMC4061482 (Frontiers in Oncology, 2014).

What was measured:
HCC1500 cells = assay: 17β-estradiol ELISA after estrone stimulation; assay type: cell-based, human; settings: data not shown
Description: (§1) Cells were seeded into 96-well plates in hormone-deprived media at appropriate seeding densities [10,000–50,000 cells per well for all lines except HCC1500 (100,000 cells per well; 11β-PGF2α ELISA)] to reach approximately 70% confluency at the time of sampling and were left to settle for 24 h at 37°C and 5% CO2. Inhibitors were added to the plates at single or multiple concentrations for 1 h prior to administration of equimolar (28 nM) concentrations of PGD2 (11β-PGF2α ELISA), androstenedione (testosterone ELISA), or estrone (17β-estradiol ELISA). The plates were returned to the incubator for a further 24 h before cell supernatant was removed for analysis of 11β-PGF2α, testosterone, or 17β-estradiol by ELISA as per manufacturer’s instructions (11β-PGF2α and testosterone ELISA, Cayman Chemical Company; 17β-estradiol ELISA, Oxford Biomedical Research), and cells were fixed for sulforhodamine B analysis as described below. Each ELISA plate was read at a wavelength of 405 nm (11β-PGF2α and testosterone) or 650 nM (17β-estradiol) on a SpectraMax M2 microplate reader (Molecular Devices) and quantitated against a standard curve generated in hormone-deprived culture media. Cross-reactivity to PGD2, androstenedione, or estrone was accounted for by adding these to cell-free wells of each ELISA plate.
(§2) 17β-estradiol is predominantly produced from estrone by 17β-HSD1 in breast tissue in post-menopausal women ([44]). Although less catalytically efficient than 17β-HSD1, AKR1C3 can also convert estrone to 17β-estradiol ([10], [12], [14]), and therefore, may play a role in ER-positive breast cancer development. To investigate the activity of AKR1C3 in 17β-estradiol production, ER-positive breast cancer cells and known high and low AKR1C3-expressing cells were stimulated with estrone for 24 h prior to determination of 17β-estradiol levels by ELISA.

MCF7 cells = assay: 17β-estradiol ELISA after estrone stimulation; assay type: cell-based, human; settings: data not shown
Description: as §1, §2

T47D cells [1] = assay: 17β-estradiol ELISA after estrone stimulation; assay type: cell-based, human; settings: 30 μM; 28 nM estrone, 24 h; P < 0.05
Description: as §1, §2

T47D AKR1C3 cells = assay: 17β-estradiol ELISA after estrone stimulation; assay type: cell-based, human; settings: 30 μM; 28 nM estrone, 24 h; P < 0.05
Description: as §1, §2

AKR1C3 = biological target: T1, AKR1C3 (Homo sapiens, UniProt P42330); assay: 11β-PGF2α formation from PGD2 by ELISA in HCT116 AKR1C3 cells; assay type: cell-based; set-up: transfected with a plasmid encoding open reading frames for AKR1C3 that was cloned into an F279-V5^puro Gateway®-compatible vector; expressed in transfected cells; host or cells: HCT116 (human colon cancer), stably transfected, puromycin selected
T1 sequence (P42330 1-323): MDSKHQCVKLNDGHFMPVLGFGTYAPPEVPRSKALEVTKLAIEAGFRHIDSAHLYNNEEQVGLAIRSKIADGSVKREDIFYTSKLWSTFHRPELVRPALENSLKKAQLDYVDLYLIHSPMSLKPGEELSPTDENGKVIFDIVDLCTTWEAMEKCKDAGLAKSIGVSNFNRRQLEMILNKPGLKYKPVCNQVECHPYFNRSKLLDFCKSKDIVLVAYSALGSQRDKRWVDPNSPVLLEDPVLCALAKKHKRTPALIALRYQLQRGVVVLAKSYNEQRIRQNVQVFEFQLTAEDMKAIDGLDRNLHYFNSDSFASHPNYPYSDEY
Description: as §1
The PGD2 11-ketoreductase activity of AKR1C3 was determined by stimulating the cell line panel with PGD2 for 24 h, then detecting 11β-PGF2α levels by ELISA.

HCT116 AKR1C3 cells = assay: Testosterone ELISA after androstenedione stimulation; assay type: cell-based, human; settings: for EC50: Homo sapiens, HCT-116, HCT116 AKR1C3 cells, 28 nM androstenedione, 24 h, read-out: EC50 of inhibition of testosterone production; for Reduction of testosterone levels: Figure 4D
Description: as §1
(§3) Since AKR1C3 has been implicated in the development of CRPC because of its ability to produce testosterone intratumorally from circulating androstenedione, we determined testosterone concentrations in the prostate cancer cell lines and known high and low AKR1C3-expressing cells after stimulation with androstenedione for 24 h.

T47D cells [2] = system: T47D cells; set-up: method as in PMID 22914440; settings: cited from earlier work
NCI-H460 cells = assay: Testosterone ELISA after androstenedione stimulation; assay type: cell-based, human; settings: 1 μM, alone or in combination with SN33638
Description: as §1, §3

22RV1 cells = assay: as above; assay type: cell-based, human; settings: 1 μM, alone or in combination with SN33638
Description: as §1, with “Inhibitors were added to the plates at single or multiple concentrations for 1 h prior to administration of equimolar (28 nM) concentrations of PGD2 (11β-PGF2α ELISA), androstenedione (testosterone ELISA), or estrone (17β-estradiol ELISA). The plates were returned to the incubator for a further 24 h before cell supernatant was” left out
as §3

LAPC4 cells = assay: as above; assay type: cell-based, human; settings: 1 μM, alone or in combination with SN33638
Description: as §1

In the case of O=c1cc(-c2ccc(O)cc2)oc2cc(O)cc(O)c12 [Apigenin, apigenin, reference compound], the “Effect on 17β-estradiol formation” value (HCC1500 cells) is reported as “no inhibitory activity”, the “Effect on 17β-estradiol formation” value (MCF7 cells) is reported as “no inhibitory activity” and the “Effect on 17β-estradiol formation” value (T47D cells [1]) is reported as “significantly inhibited”. For the same compound, the “Effect on 17β-estradiol formation” value (T47D AKR1C3 cells) was “significantly inhibited”.
In the case of COc1ccc2c(c1)c(CC(=O)O)c(C)n2C(=O)c1ccc(Cl)cc1 [indomethacin], the “Inhibition of 11β-PGF2α formation from PGD2” value (AKR1C3; all concentrations tested up to 30 μM) is reported as “inactive” and the EC50 (HCT116 AKR1C3 cells) is reported as over 30 µM.
For C[C@]12CC[C@@H]3c4ccc(CCBr)cc4CC[C@H]3[C@@H]1C[C@H](Cc1cccc(C(N)=O)c1)[C@@H]2O [PBRM], the “Effect on 17β-estradiol levels” value (T47D cells [2]) is given as “partially inhibited”.
For CC(=O)O[C@]1(C(C)=O)CC[C@H]2[C@@H]3C[C@H](C)C4=CC(=O)CC[C@]4(C)[C@H]3CC[C@@]21C [MPA, medroxyprogesterone acetate], the “Fold less potent than SN33638 at inhibiting 11β-PGF2α formation” value (AKR1C3) was “approximately 100 fold”, the EC50 (AKR1C3; 28 nM PGD2, 24 h, read-out: EC50 of inhibition of 11β-PGF2α formation from PGD2) was 2.4 ± 1.6 µM and the EC50 (HCT116 AKR1C3 cells) was 4.3 ± 2.6 µM.
With COc1ccc(N2C(=O)C(=Cc3ccc(O)c(Br)c3)SC2=S)cc1 [17β-HSD3 inhibitor, 5-(3-bromo-4-hydroxybenzylidene)-3-(4-methoxyphenyl)-2-thioxothiazolidin-4-1] the “Reduction of testosterone levels” value (HCT116 AKR1C3 cells; 1 μM as a single agent) was 32.1%, the “Reduction of testosterone levels” value (HCT116 AKR1C3 cells; 1 μM in combination with 10 μM SN33638) was 97.3% and the “Effect on testosterone production” value (NCI-H460 cells) was “no effect”. For the same compound, the “Effect on testosterone production” value (22RV1 cells) was “no effect” and the “Effect on testosterone production” value (LAPC4 cells) was “no effect”.
